From patent US20240390340A1 (INCYTE CORPORATION, priority 2023, published 2024)

Columns and labels:
[1] = target: KRAS G12V (Homo sapiens, UniProt P01116, G12V); assay: GDP-GTP exchange assay (bodipy-GDP/GppNHp, SOS1), KRAS G12V; type: biochemical; conditions: KRAS G12V mutant; value for the most potent isomer quoted for certain compounds; read-out: G12V (KRAS G12V exchange assay IC50)
[2] = target: KRAS G12D (Homo sapiens, UniProt P01116, G12D); assay: GDP-GTP exchange assay (bodipy-GDP/GppNHp, SOS1), KRAS G12D; type: biochemical; conditions: bodipy-loaded KRAS G12D 2.5 nM, 4 h pre-incubation; value for the most potent isomer quoted for certain compounds; read-out: G12D (KRAS G12D exchange assay IC50)
Sequence of KRAS G12D (P01116 1-188 isoform P01116-2 G12D): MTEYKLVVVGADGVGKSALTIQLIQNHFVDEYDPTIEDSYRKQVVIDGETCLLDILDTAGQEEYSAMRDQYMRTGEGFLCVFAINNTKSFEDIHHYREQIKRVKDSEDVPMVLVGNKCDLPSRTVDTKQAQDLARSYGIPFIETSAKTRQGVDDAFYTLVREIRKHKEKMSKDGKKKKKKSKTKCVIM

Sequence of KRAS G12V (P01116 1-188 isoform P01116-2 G12V): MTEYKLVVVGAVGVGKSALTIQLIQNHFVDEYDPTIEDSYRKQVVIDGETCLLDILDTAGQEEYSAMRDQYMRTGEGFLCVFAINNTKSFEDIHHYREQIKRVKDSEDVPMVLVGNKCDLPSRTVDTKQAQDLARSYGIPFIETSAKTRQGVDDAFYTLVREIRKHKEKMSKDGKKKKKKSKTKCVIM

Row | Compound | IC50 [1] [µM] | IC50 [2] [µM]
1 | COCC1(c2cn([C@H]3C[C@H](c4cc5c(C)nc6c(F)c(-c7cccc(Cl)c7Cl)c(CCC#N)cc6c5n4[C@H]4[C@H]5CN[C@@H]4C5)N(C(=O)C4CC4)C3)nn2)CC1 [Example 383] | ≤ 0.1 | ≤ 0.1
2 | Cc1nc2c(F)c(-c3cccc(Cl)c3Cl)c(CCC#N)cc2c2c1cc([C@H]1C[C@H](n3cc(C4(C)CCC4)nn3)CN1C(=O)C1CC1)n2[C@H]1[C@H]2CN[C@@H]1C2 [Example 384] | ≤ 0.1 | ≤ 0.1
3 | Cc1nc2c(F)c(-c3cccc(Cl)c3Cl)c(CCC#N)cc2c2c1cc([C@H]1C[C@H](n3cc(C4(C)CCCC4)nn3)CN1C(=O)C1CC1)n2[C@H]1[C@H]2CN[C@@H]1C2 [Example 386] | ≤ 0.1 | ≤ 0.1
4 | Cc1nc2c(F)c(-c3cccc(Cl)c3Cl)c(CCC#N)cc2c2c1cc([C@H]1C[C@H](n3cc(CCc4ccccc4)nn3)CN1C(=O)C1CC1)n2[C@H]1[C@H]2CN[C@@H]1C2 [Example 389] | ≤ 0.1 | ≤ 0.1
5 | COC(=O)[C@H]1C[C@H]1c1cn([C@H]2C[C@H](c3cc4c(C)nc5c(F)c(-c6cccc(Cl)c6Cl)c(CCC#N)cc5c4n3[C@H]3[C@H]4CN[C@@H]3C4)N(C(=O)C3CC3)C2)nn1 [Example 390] | ≤ 0.1 | ≤ 0.1
6 | COC(=O)C1CCC(c2cn([C@H]3C[C@H](c4cc5c(C)nc6c(F)c(-c7cccc(Cl)c7Cl)c(CCC#N)cc6c5n4[C@H]4[C@H]5CN[C@@H]4C5)N(C(=O)C4CC4)C3)nn2)C1 (some centres unmarked) [Example 391] | ≤ 0.1 | ≤ 0.1
7 | CCc1nnn([C@H]2C[C@H](c3cc4c(C)nc5c(F)c(-c6cccc(Cl)c6Cl)c(CCC#N)cc5c4n3[C@H]3[C@H]4CN[C@@H]3C4)N(C(=O)C3CC3)C2)c1-c1ccccc1 [Example 392] | ≤ 0.1 | ≤ 0.1
8 | CCOC(=O)c1cnn([C@H]2C[C@H](c3cc4c(C)nc5c(F)c(-c6cccc(Cl)c6Cl)c(CCC#N)cc5c4n3[C@H]3[C@H]4CN[C@@H]3C4)N(C(=O)C3CC3)C2)n1 [Example 393] | ≤ 0.1 | ≤ 0.1
9 | CCOC(=O)c1cn([C@H]2C[C@H](c3cc4c(C)nc5c(F)c(-c6cccc(Cl)c6Cl)c(CCC#N)cc5c4n3[C@H]3[C@H]4CN[C@@H]3C4)N(C(=O)C3CC3)C2)nn1 [Example 394] | ≤ 0.1 | ≤ 0.1
10 | Cc1nc2c(F)c(-c3cccc(Cl)c3Cl)c(CCC#N)cc2c2c1cc([C@H]1C[C@H](n3cnnn3)CN1C(=O)C1CC1)n2[C@H]1[C@H]2CN[C@@H]1C2 [Example 395] | ≤ 0.1 | ≤ 0.1
11 | Cc1nc2c(F)c(-c3cccc(Cl)c3Cl)c(CCC#N)cc2c2c1cc([C@H]1C[C@H](n3ncnn3)CN1C(=O)C1CC1)n2[C@H]1[C@H]2CN[C@@H]1C2 [Example 396] | ≤ 0.1 | ≤ 0.1
12 | Cc1nc2c(F)c(-c3cccc(Cl)c3Cl)c(CCC#N)cc2c2c1cc([C@H]1C[C@H](n3nnnc3C)CN1C(=O)C1CC1)n2[C@H]1[C@H]2CN[C@@H]1C2 [Example 397] | ≤ 0.1 | ≤ 0.1
13 | Cc1nnn([C@H]2C[C@H](c3cc4c(C)nc5c(F)c(-c6cccc(Cl)c6Cl)c(CCC#N)cc5c4n3[C@H]3[C@H]4CN[C@@H]3C4)N(C(=O)C3CC3)C2)n1 [Example 398] | ≤ 0.1 | ≤ 0.1
14 | Cc1nc2c(F)c(-c3cccc(Cl)c3Cl)c(CCC#N)cc2c2c1cc([C@H]1C[C@H](n3nnc(-c4ccccc4)n3)CN1C(=O)C1CC1)n2[C@H]1[C@H]2CN[C@@H]1C2 [Example 399] | ≤ 0.1 | ≤ 0.1
15 | Cc1nc2c(F)c(-c3cccc(Cl)c3Cl)c(CCC#N)cc2c2c1cc([C@H]1C[C@H](OC[C@@H]3CCCO3)CN1C(=O)C1CC1)n2[C@H]1[C@H]2CN[C@@H]1C2 [Example 400] | ≤ 0.1 | ≤ 0.1
16 | CO[C@H]1C[C@H](CO[C@H]2C[C@H](c3cc4c(C)nc5c(F)c(-c6cccc(Cl)c6Cl)c(CCC#N)cc5c4n3[C@H]3[C@H]4CN[C@@H]3C4)N(C(=O)C3CC3)C2)C1 [Example 401] | ≤ 0.1 | ≤ 0.1
17 | Cc1nc2c(F)c(-c3cccc(Cl)c3Cl)c(CCC#N)cc2c2c1cc([C@H]1C[C@H](OC[C@H]3C[C@H](C#N)C3)CN1C(=O)C1CC1)n2[C@H]1[C@H]2CN[C@@H]1C2 [Example 402] | ≤ 0.1 | ≤ 0.1
18 | Cc1nc2c(F)c(-c3cccc(Cl)c3Cl)c(CCC#N)cc2c2c1cc([C@H]1C[C@H](OC[C@H]3C[C@@H](C#N)C3)CN1C(=O)C1CC1)n2[C@H]1[C@H]2CN[C@@H]1C2 [Example 403] | ≤ 0.1 | ≤ 0.1
19 | CC(O)c1nc2c(F)c(-c3cccc(Cl)c3Cl)c(CCC#N)cc2c2c1cc([C@H]1C[C@H](OCC3(C#N)CC3)CN1C(=O)C1CC1)n2[C@H]1[C@H]2CN[C@@H]1C2 (some centres unmarked) [Example 404] | ≤ 0.1 | ≤ 0.1
20 | Cc1nc2c(F)c(-c3cccc(Cl)c3Cl)c(CCC#N)cc2c2c1cc([C@H]1C[C@H](OCc3nccs3)C(C)(C)N1C(=O)C1CC1)n2[C@H]1[C@H]2CN[C@@H]1C2 [Example 405] | ≤ 0.1 | ≤ 0.1

Row | Compound | IC50 [1] [µM] | IC50 [2] [µM]
21 | Cc1nc2c(F)c(-c3cccc(Cl)c3Cl)c(CCC#N)cc2c2c1cc([C@H]1C[C@H](Oc3ccnn3C(F)(F)F)CN1C(=O)C1CC1)n2[C@H]1[C@H]2CN[C@@H]1C2 [Example 406] | ≤ 0.1 | ≤ 0.1
22 | Cc1nc2c(F)c(-c3cccc(Cl)c3Cl)c(CCC#N)cc2c2c1cc([C@H]1C[C@H](Oc3ccn(C)c3C(F)(F)F)CN1C(=O)C1CC1)n2[C@H]1[C@H]2CN[C@@H]1C2 [Example 407] | ≤ 0.1 | ≤ 0.1
23 | Cc1nn(CC(F)F)cc1O[C@H]1C[C@H](c2cc3c(C)nc4c(F)c(-c5cccc(Cl)c5Cl)c(CCC#N)cc4c3n2[C@H]2[C@H]3CN[C@@H]2C3)N(C(=O)C2CC2)C1 [Example 408] | ≤ 0.1 | ≤ 0.1
24 | Cc1nc2c(F)c(-c3cccc(Cl)c3Cl)c(CCC#N)cc2c2c1cc([C@H]1C[C@H](Oc3cc(C(F)(F)F)[nH]n3)CN1C(=O)C1CC1)n2[C@H]1[C@H]2CN[C@@H]1C2 [Example 409] | ≤ 0.1 | ≤ 0.1
25 | Cc1nc2c(F)c(-c3cccc(Cl)c3Cl)c(CCC#N)cc2c2c1cc([C@H]1C[C@H](Oc3cnn(CC(F)F)c3C)CN1C(=O)C1CC1)n2[C@H]1[C@H]2CN[C@@H]1C2 [Example 410] | ≤ 0.1 | ≤ 0.1
26 | Cc1nc2c(F)c(-c3cccc(Cl)c3Cl)c(CCC#N)cc2c2c1cc([C@H]1C[C@H](Oc3ccn(CC(F)(F)F)n3)CN1C(=O)C1CC1)n2[C@H]1[C@H]2CN[C@@H]1C2 [Example 411] | ≤ 0.1 | ≤ 0.1
27 | Cc1nc2c(F)c(-c3cccc(Cl)c3Cl)c(CCC#N)cc2c2c1cc([C@H]1C[C@H](OCC3(C)CC(F)(F)C3)CN1C(=O)C1CC1)n2[C@H]1[C@H]2CN[C@@H]1C2 [Example 412] | ≤ 0.1 | ≤ 0.1
28 | Cc1nc2c(F)c(-c3cccc(Cl)c3Cl)c(CCC#N)cc2c2c1cc([C@H]1C[C@H](OCC3CCOCC3)CN1C(=O)C1CC1)n2[C@H]1[C@H]2CN[C@@H]1C2 [Example 413] | ≤ 0.1 | ≤ 0.1
29 | Cc1nc2c(F)c(-c3cccc(Cl)c3Cl)c(CCC#N)cc2c2c1cc([C@H]1C[C@H](n3cc(C(F)(F)F)nn3)CN1C(=O)C1CC1)n2[C@H]1[C@H]2CN[C@@H]1C2 [Example 414] | ≤ 0.1 | ≤ 0.1
30 | Cc1nc2c(F)c(-c3cccc(Cl)c3Cl)c(CCC#N)cc2c2c1cc([C@H]1C[C@H](Oc3ccn(C)c(=O)c3)CN1C(=O)C1CC1)n2[C@H]1[C@H]2CN[C@@H]1C2 [Example 419] | ≤ 0.1 | ≤ 0.1
31 | Cc1nc2c(F)c(-c3cccc(Cl)c3Cl)c(CCC#N)cc2c2c1cc([C@H]1C[C@H](Oc3ccc(=O)n(C)c3)CN1C(=O)C1CC1)n2[C@H]1[C@H]2CN[C@@H]1C2 [Example 420] | ≤ 0.1 | ≤ 0.1
32 | Cc1nc2c(F)c(-c3cccc(Cl)c3Cl)c(CCC#N)cc2c2c1cc([C@H]1C[C@H](Oc3ccnc(C4CCC4)c3)CN1C(=O)C1CC1)n2[C@H]1[C@H]2CN[C@@H]1C2 [Example 421] | ≤ 0.1 | ≤ 0.1
33 | Cc1ccnc(O[C@H]2C[C@H](c3cc4c(C)nc5c(F)c(-c6cccc(Cl)c6Cl)c(CCC#N)cc5c4n3[C@H]3[C@H]4CN[C@@H]3C4)N(C(=O)C3CC3)C2)c1 [Example 422] | ≤ 0.1 | ≤ 0.1
34 | Cc1ccnc(O[C@H]2C[C@H](c3cc4c([C@@H](C)O)nc5c(F)c(-c6cccc(Cl)c6Cl)c(CCC#N)cc5c4n3[C@H]3C4CNC3C4)N(C(=O)C3CC3)C2)c1 (some centres unmarked) [Example 424] | ≤ 0.1 | ≤ 0.1
35 | C[C@@H](O)c1nc2c(F)c(-c3cccc(Cl)c3Cl)c(CCC#N)cc2c2c1cc([C@H]1C[C@H](Oc3cc(F)ccn3)CN1C(=O)C1CC1)n2[C@H]1C2CNC1C2 (some centres unmarked) [Example 425] | ≤ 0.1 | ≤ 0.1
36 | Cc1nc2c(F)c(-c3cccc(Cl)c3Cl)c(CCC#N)cc2c2c1cc([C@H]1C[C@H](n3cc(N4CCOCC4)cn3)CN1C(=O)C1CC1)n2[C@H]1[C@H]2CN[C@@H]1C2 [Example 428] | ≤ 0.1 | ≤ 0.1
37 | Cc1nc2c(F)c(-c3cccc(Cl)c3Cl)c(CCC#N)cc2c2c1cc([C@H]1C[C@H](n3cc(C4CC4)cn3)CN1C(=O)C1CC1)n2[C@H]1[C@H]2CN[C@@H]1C2 [Example 429] | ≤ 0.1 | ≤ 0.1
38 | COC(=O)c1ccc(-c2nnn([C@H]3C[C@H](c4cc5c(C)nc6c(F)c(-c7cccc(Cl)c7Cl)c(CCC#N)cc6c5n4[C@H]4[C@H]5CN[C@@H]4C5)N(C(=O)C4CC4)C3)n2)cc1 [Example 435] | ≤ 0.1 | ≤ 0.1
39 | Cc1nc2c(F)c(-c3cccc(Cl)c3Cl)c(CCC#N)cc2c2c1cc([C@H]1C[C@H](n3nnc(-c4cccc(OC(F)(F)F)c4)n3)CN1C(=O)C1CC1)n2[C@H]1[C@H]2CN[C@@H]1C2 [Example 436] | 0.1 to 1 | ≤ 0.1
40 | CO[C@H]1CC[C@@H](O[C@H]2C[C@H](c3cc4c(C)nc5c(F)c(-c6cccc(Cl)c6Cl)c(CCC#N)cc5c4n3[C@H]3[C@H]4CN[C@@H]3C4)N(C(=O)C3CC3)C2)C1 [Example 439] | ≤ 0.1 | ≤ 0.1
